{
  "source": "patent US11802120B2",
  "about": "“Fused cyclic urea derivatives as CRHR2 antagonist” (RaQualia Pharma Inc., priority 2018, dated 2023)",
  "format_in_all_cases": "cell-based",
  "key": {"CRHR2": {"biological_target": "T1, CRHR2 (Homo sapiens, UniProt Q13324)", "T1 sequence (Q13324 1-411)": "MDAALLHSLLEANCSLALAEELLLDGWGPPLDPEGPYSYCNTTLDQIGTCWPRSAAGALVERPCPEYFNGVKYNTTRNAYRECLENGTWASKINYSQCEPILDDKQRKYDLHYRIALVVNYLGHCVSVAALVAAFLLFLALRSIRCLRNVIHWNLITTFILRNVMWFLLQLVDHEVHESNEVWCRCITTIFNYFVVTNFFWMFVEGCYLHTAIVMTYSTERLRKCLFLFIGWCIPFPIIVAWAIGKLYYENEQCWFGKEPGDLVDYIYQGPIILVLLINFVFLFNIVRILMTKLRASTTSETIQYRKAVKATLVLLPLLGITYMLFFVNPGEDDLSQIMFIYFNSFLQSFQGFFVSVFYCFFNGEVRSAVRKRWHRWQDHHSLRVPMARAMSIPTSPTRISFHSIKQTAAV", "experiment": "CRHR2 antagonistic activity (inhibitory activity against CRHR2)"}, "human CRHR2-alpha": {"biological_target": "T2, human CRHR2-alpha (Homo sapiens, UniProt Q13324)", "T2 sequence (Q13324 1-411)": "T1 sequence (Q13324 1-411)", "experiment": "cAMP functional assay for human CRHR2 (LANCE Ultra cAMP, TR-FRET)", "conditions": "CHO-K1 cells expressing human CRHR2-alpha, agonist human urocortin2 at EC80, cAMP; read-out: IC50 against CRHR2", "in_short": "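Antagonism measured in CHO-K1 cells stably expressing the receptor, serum-starved 7 h then cryopreserved. Thawed cells in HBSS buffer with 0.1% BSA, 0.5 mM IBMX, 5 mM Hepes pH 7.4 were preincubated with compound 30 min at 25° C, then stimulated 30 min with EC80 agonist: urocortin2 for CRHR2, CRF for CRHR1.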"}, "human CRHR1-beta": {"biological_target": "T3, human CRHR1-beta (Homo sapiens, UniProt P34998)", "T3 sequence (P34998 24-444 isoform P34998-1 limits assumed)": "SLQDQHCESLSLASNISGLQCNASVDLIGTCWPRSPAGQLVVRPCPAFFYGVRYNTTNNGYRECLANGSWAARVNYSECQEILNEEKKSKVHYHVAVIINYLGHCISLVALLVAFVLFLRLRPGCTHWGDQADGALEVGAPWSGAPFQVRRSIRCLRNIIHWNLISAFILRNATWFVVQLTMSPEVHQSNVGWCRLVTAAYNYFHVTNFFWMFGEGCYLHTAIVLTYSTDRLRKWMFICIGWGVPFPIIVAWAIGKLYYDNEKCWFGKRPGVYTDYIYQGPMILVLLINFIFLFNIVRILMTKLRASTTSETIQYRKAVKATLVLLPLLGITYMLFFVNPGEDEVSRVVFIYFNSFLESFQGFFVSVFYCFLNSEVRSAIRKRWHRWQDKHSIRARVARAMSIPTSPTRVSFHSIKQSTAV", "experiment": "cAMP functional assay for human CRHR1 (LANCE Ultra cAMP, TR-FRET)", "conditions": "CHO-K1 cells expressing human CRHR1-beta, agonist CRF at EC80, cAMP; read-out: IC50 against CRHR1", "procedure": "cAMP functional assay for human CRHR1 and CRHR2\nThe ability of the compounds of this invention to inhibit either CRHR2 or CRHR1 is assessed by 3′,5′-cyclic adenosine monophosphate (cAMP) production in cells using the LANCE Ultra cAMP assay kit (ParkinElmer), which are designed based on the homogeneous time-resolved fluorescence resonance energy transfer (TR-FRET) immunoassay.\nCHO-K1 (Chinese hamster ovary) cells stably expressing either human CRHR2-alpha (DiscoveRX, Cat. 95-0048C2) or human CRHR1-beta (DiscoveRX, Cat. 95-0047C2) are grown in HAM's F12 media supplemented with 10% fetal bovine serum (FBS), 100 units/mL penicillin, 100 microg/mL hygromycin and 0.5 microg/mL geneticin at 37° C. in 5% CO2 humidified incubator to 80% confluence. After 7 hours starvation treatment in culture media containing 0.1% FBS, the cells are washed with Hanks balanced salt solution (HBSS) and cryopreserved.\nFor cAMP assay, frozen cells are thawed and washed with HBSS, followed by resuspended in assay buffer (HBSS containing 0.1% bovine serum albumin, 0.5 mM isobutylmethylxanthine and 5 mM Hepes, pH 7.4) at the appropriate concentration for the assay. The cell suspensions are plated on 384-well microplates (Greiner Bio-One) at a density of 4,000 cells per well. After preincubating the cells with various concentrations of the compounds for 30 min at 25° C., an assay buffer containing EC80 concentration of each agonist is added and the cells are incubated for 30 min at 25° C. Human urocortin2 (Peptide Institute) and CRF (Peptide Institute) are used as agonists for CRHR2 and CRHR1, respectively. For the termination of assay, europium-labeled cAMP tracer and ULight (registered trademark) dye labeled cAMP antibodies, both prepared with Lance-Ultra cAMP detection reagent (Perkin Elmer) are added in the plate and incubate for 60 min at 25° C. After incubation, TR-FRET signal is detected by EnVision plate reader (PerkinElmer). The IC50 values for compounds are calculated from dose-response curves by fitting the percent inhibition using XLfit (ID Business Solutions)."}},
  "data": [
    {"smiles": "CCn1c(=O)n(C[C@H]2CC[C@H](NC(=O)c3cc(Cl)cnc3C)CC2)c2ccccc21", "note": "[Example 2.46, reference compound]", "values": [
      {"measurement": "IC50", "setting": "CRHR2", "value": 3000, "unit": "nM"}
    ]},
    {"smiles": "Cc1ncc(Cl)cc1C(=O)N[C@H]1CC[C@H](Cn2c(=O)n(Cc3ccccc3)c3ccccc32)CC1", "note": "[Example 2, N-((1r,4r)-4-((3-benzyl-2-oxo-2,3-dihydro-1H-benzo[d]imidazol-1-yl)methyl)cyclohexyl)-5-chloro-2-methylnicotinamide]", "values": [
      {"measurement": "IC50", "setting": "CRHR2", "value": 180, "unit": "nM"},
      {"measurement": "IC50", "setting": "human CRHR2-alpha", "value": "< 300", "unit": "nM"}
    ]},
    {"smiles": "COc1ccc(-n2c(=O)n(C[C@H]3CC[C@H](NC(=O)c4cc(Cl)cnc4C)CC3)c3ccccc32)cn1", "note": "[Example 30, 5-chloro-N-((1r,4r)-4-((3-(6-methoxypyridin-3-yl)-2-oxo-2,3-dihydro-1H-benzo[d]imidazol-1-yl)methyl)cyclohexyl)-2-methylnicotinamide]", "values": [
      {"measurement": "IC50", "setting": "CRHR2", "value": 60, "unit": "nM"},
      {"measurement": "IC50", "setting": "human CRHR2-alpha", "value": "< 300", "unit": "nM"},
      {"measurement": "IC50", "setting": "human CRHR1-beta", "value": "< 1000", "unit": "nM"}
    ]},
    {"smiles": "Cc1ncc(Cl)cc1C(=O)N[C@H]1CC[C@H](Cn2c(=O)n(-c3cnc4c(ccn4C)c3)c3ccccc32)CC1", "note": "[Example 148, 5-chloro-2-methyl-N-((1r,4r)-4-((3-(1-methyl-1H-pyrrolo [2,3-b]pyridin-5-yl)-2-oxo-2,3-dihydro-1H-benzo[d]imidazol-1-yl)methyl)cyclo-hexyl)nicotinamide]", "values": [
      {"measurement": "IC50", "setting": "CRHR2", "value": 60, "unit": "nM"},
      {"measurement": "IC50", "setting": "human CRHR2-alpha", "value": "< 300", "unit": "nM"}
    ]},
    {"smiles": "Cc1ncc(Cl)cc1C(=O)N[C@H]1CC[C@H](Cn2c(=O)n(C3CCCCC3)c3ccccc32)CC1", "note": "[reference compound (A), reference compound]", "values": [
      {"measurement": "IC50", "setting": "CRHR2", "value": 3100, "unit": "nM"}
    ]},
    {"smiles": "Cc1ncc(Cl)cc1C(=O)N[C@H]1CC[C@H](Cn2c(=O)n(-c3cccnc3)c3ccccc32)CC1", "note": "[Example 156, 5-chloro-2-methyl-N-((1r,4r)-4-((2-oxo-3-(pyridin-3-yl)-2,3-dihydro-1H-benzo[d]imidazol-1-yl)methyl)cyclo-hexyl)nicotinamide]", "values": [
      {"measurement": "IC50", "setting": "CRHR2", "value": 280, "unit": "nM"},
      {"measurement": "IC50", "setting": "human CRHR2-alpha", "value": "< 300", "unit": "nM"}
    ]},
    {"smiles": "Cc1ncc(Cl)cc1C(=O)N[C@H]1CC[C@H](Cn2c(=O)n(C)c3ccccc32)CC1", "note": "[Example 2.50, reference compound]", "values": [
      {"measurement": "IC50", "setting": "CRHR2", "value": 13000, "unit": "nM"}
    ]},
    {"smiles": "Cc1ncc(Cl)cc1C(=O)N[C@H]1CC[C@H](Cn2c(=O)n(-c3ccccc3)c3ccccc32)CC1", "note": "[Example 1, 5-chloro-2-methyl-N-((1r,4r)-4-((2-oxo-3-phenyl-2,3-dihydro-1H-benzo[d]imidazol-1-yl)methyl)cyclohexyl)nicotinamide]", "values": [
      {"measurement": "IC50", "setting": "CRHR2", "value": 390, "unit": "nM"}
    ]},
    {"smiles": "Cc1ncc(Cl)cc1C(=O)N[C@H]1CC[C@H](Cn2c(=O)n(-c3cnc4[nH]ncc4c3)c3ccccc32)CC1", "note": "[Example 128, 5-chloro-2-methyl-N-((1r,4r)-4-((2-oxo-3-(1H-pyrazolo[3,4-b]pyridin-5-yl)-2,3-dihydro-1H-benzo[d]imidazol-1-yl)methyl)cyclohexyl)nicotinamide]", "values": [
      {"measurement": "IC50", "setting": "CRHR2", "value": 280, "unit": "nM"},
      {"measurement": "IC50", "setting": "human CRHR2-alpha", "value": "< 300", "unit": "nM"}
    ]},
    {"smiles": "CCNc1ccc(-n2c(=O)n(C[C@H]3CC[C@H](NC(=O)c4cc(Cl)cnc4C)CC3)c3ccccc32)cn1", "note": "[Example 92, 5-chloro-N-((1r,4r)-4-((3-(6-(ethylamino)pyridin-3-yl)-2-oxo-2,3-dihydro-1H-benzo [d]imidazol-1-yl)methyl)cyclohexyl)-2-methylnico-tinamide]", "values": [
      {"measurement": "IC50", "setting": "human CRHR2-alpha", "value": "< 300", "unit": "nM"},
      {"measurement": "IC50", "setting": "human CRHR1-beta", "value": "< 1000", "unit": "nM"}
    ]}
  ]
}
